The values below come from a melting point compilation (Tetko et al.).

Each structure is given as a SMILES string. Residues, ends and D or L forms follow the SMILES beside them. *: point of attachment. Cyclohexanecarbonyl = O=C(C1CCCCC1)*; Bn = c1ccc(C*)cc1

For orientation: melting point means the temperature, or range, at which the solid turns liquid.

In turn, `CCOC(=O)c1c(Nc2ccccc2)n[nH]c1C` displayed a melting point of 160 to 164 °C.
`CCCCCCCCCCCCN(c1nc(NCC(O)C2CC(C)(C)NC(C)(C)C2)nc(NCC(O)C2CC(C)(C)NC(C)(C)C2)n1)c1nc(NCC(O)C2CC(C)(C)NC(C)(C)C2)nc(NCC(O)C2CC(C)(C)NC(C)(C)C2)n1` (configuration not stated) yielded a melting point of 106 to 110 °C.
The molecule `CCC1=C(C#N)c2cc3c(c(O)c2CC1)C(=O)c1c(O)cccc1C3=O` displayed a melting point of 227 to 228 °C.
Take `COCCOc1ccc(/C=C(\C)C(=O)NS(=O)(=O)CC(F)(F)F)c(Oc2ncc(C(F)(F)F)cc2Cl)c1`: the melting point lay within 159 to 160 °C.
In turn, `CC(C)[C@H](NC(=O)N(C)Cc1ccccn1)C(=O)N[C@@H](Cc1ccccc1)[C@H](O)[C@@H](O)[C@H](Cc1ccccc1)NC(=O)[C@@H](NC(=O)N(C)Cc1cscn1)C(C)C` showed a melting point of 84 to 88 °C.
On to `CC(C)C(NC(=O)N(C)Cc1ccccn1)C(=O)NC(Cc1ccccc1)C(O)C(O)C(Cc1ccccc1)NC(=O)C(NC(=O)N(C)Cc1nccs1)C(C)C` (configuration not stated), for which the melting point lay in the range of 96 to 97 °C.
As to `CC(=O)OCC(COC(C)=O)NC(=O)c1c(I)c(C(=O)NC(COC(C)=O)COC(C)=O)c(I)c(N2CCC(Br)C2=O)c1I` (configuration not stated), the melting point lay in the range of 232 to 234 °C.
Next, `O=P(Oc1c(Br)cc(Br)cc1Br)(Oc1c(Br)cc(Br)cc1Br)Oc1c(Br)cc(Br)cc1Br`: 223 to 226 °C; `CC(=O)OCC1OC(OC2C(COC(C)=O)OC(OC3C(CO)OC(OCCBr)C(O)C3O)C(OC(C)=O)C2OC(C)=O)C(OC(C)=O)C(OC(C)=O)C1OC(C)=O` (configuration not stated): 178 to 180 °C.
Under `CC(C)CCCC(C)C1CCC2C3CC=C4CC(NCCCNC(=O)CCNC(=O)CCNC(=O)CCCCCNc5ccc([N+](=O)[O-])cc5[N+](=O)[O-])CCC4(C)C3CCC12C` (configuration not stated) stands 118 to 119 °C.
With `C=C1C(n2ccc(NC(=O)CCCCCCCCCCCCCCCCC)nc2=O)OC(COC(=O)CCCCCCCCCCCCCCCCC)C1(O)C(=O)CCCCCCCCCCCCCCCCC` (configuration not stated), the melting point lay in the range of 92 to 96 °C.
Molecule `CCCCCCCCCCCCCCCCCCN(CCCCCCCCCCCCCCCCCC)C(=O)c1cc(NS(=O)(=O)c2ccc(Cl)nc2)c2ccccc2c1O` registered a melting point of 80 to 83 °C.
In turn, `CCCNC(Cc1cc(I)c(Oc2cc(I)c(O)c(I)c2)c(I)c1)C(=O)O` (configuration not stated) yielded a melting point of 212 to 213 °C.
`CC(C)(C)c1cc(-c2nnc(NC(=N)N)o2)cc(C(C)(C)C)c1O` had a melting point of 223 to 224 °C.
Next, `FC(F)(F)C(F)(F)C(F)(F)C(F)(F)C(F)(F)C(F)(F)C(F)(F)C(F)(F)CCC1(CCC(F)(F)C(F)(F)C(F)(F)C(F)(F)C(F)(F)C(F)(F)C(F)(F)C(F)(F)F)c2ccccc2-c2ccccc21`: 87 to 88 °C.
In the case of `[C-]#[N+]CS(=O)c1ccccn1` (configuration not stated), the melting point was 91 to 93 °C.
The molecule `CSC1=NCc2cc(Cl)ccc2-n2c(C)nnc21` registered a melting point of 248 to 250 °C.
Next, `CC(C)(C)OC(=O)N1CCN(c2ccc(C(=O)O)cc2)CC1`: 195 °C.
`COC(=O)C(C)(C)NC(=O)Nc1ccc(Cl)cc1` had a melting point of 135 to 136 °C.
Regarding `O=C(CC(CC(=O)OCc1cc(Br)cc(Br)c1O)C(=O)OCc1cc(Br)cc(Br)c1O)OCc1cc(Br)cc(Br)c1O`, the melting point lay in the range of 100 to 102 °C.
`CCCCCCCCCCOc1cc2c3c(c4cc(OCCCCCCCCCC)c(OCCCCCCCCCC)cc4c2cc1OCCCCCCCCCC)C(=O)C=CC3=O` came in with a melting point of 86 to 87 °C.
Take `O=C1c2cc(Sc3ccc(Cl)cc3)c(Sc3ccc(Cl)cc3)cc2C(=O)c2c1c(O)c1cc(Sc3ccc(Cl)cc3)c(Sc3ccc(Cl)cc3)cc1c2O`: the melting point is greater than 300 °C.
Consider `CC(=O)OCC1OC(SCCCCCCOC2CCC3(C)C(=CCC4C3CCC3(C)C(C(C)CCCC(C)C)CCC43)C2)C(OC(C)=O)C(OC(C)=O)C1OC(C)=O` (configuration not stated), for which the melting point fell in the range of 103 to 104 °C.
Under `CC(CO)Nc1nc(Nc2ccc(S(C)(=O)=NS(=O)(=O)CC[Si](C)(C)C)cc2)ncc1Br` (mixture of isomers) stands 194 to 197 °C; under `CCOC(=O)c1cc(NCc2c(C)cccc2CC)c2nc(C)n(C)c2c1`, 171 to 173 °C; under `Cc1c(O)cc(C(C)(C)C)c(O)c1C(=O)Nc1ccc(S(=O)(=O)C(F)(F)F)cc1Cl`, 163 to 166 °C.
Under `[C-]#[N+]Cc1c(OC)cc(OC)cc1OC` stands 107 to 109 °C.
Next, `O=C(O)c1ccc([Si](CCC(F)(F)C(F)(F)C(F)(F)C(F)(F)C(F)(F)C(F)(F)C(F)(F)C(F)(F)C(F)(F)C(F)(F)F)(CCC(F)(F)C(F)(F)C(F)(F)C(F)(F)C(F)(F)C(F)(F)C(F)(F)C(F)(F)C(F)(F)C(F)(F)F)CCC(F)(F)C(F)(F)C(F)(F)C(F)(F)C(F)(F)C(F)(F)C(F)(F)C(F)(F)C(F)(F)C(F)(F)F)cc1`: 134 to 136 °C.
`CCOC(=O)C(C)OC(=O)c1c(I)c(NC(C)=O)c(I)c(C(=O)OC(C)C(=O)OCC)c1I` (configuration not stated): the melting point lay within 160 to 165 °C.
`CCC1(CC)c2cc(-c3nc4cc5sc(-c6ccc7c(c6)C(CC)(CC)c6cc(N(c8ccccc8)c8ccccc8)ccc6-7)nc5cc4s3)ccc2-c2ccc(N(c3ccccc3)c3ccccc3)cc21` came in with a melting point of 180 to 183 °C.
Next, `CN(CC(O)C(CC1CCCCC1)NC(=O)C(Cc1c[nH]cn1)NC(=O)C(CC(=O)C(C)(C)C)Cc1ccccc1)C(Cc1c[nH]cn1)NC(=O)C(CC(=O)C(C)(C)C)Cc1ccccc1` (configuration not stated): 118 °C.
In turn, `CCCc1[nH]c2ccccc2c1C1(c2ccc(N(CC)CC)cc2OCCOCCOc2cc(N(CC)CC)ccc2C2(c3c(CCC)[nH]c4ccccc34)OC(=O)c3ccccc32)OC(=O)c2ccccc21` (configuration not stated) gave a melting point of 191 to 194 °C.
Under `COC(=O)C(C)NC(=O)C(Cc1ccc(OCc2ccccc2)cc1)NC(=O)C(COCc1ccccc1)NC(=O)C(Cc1c[nH]c2ccccc12)NC(=O)C1CCCCC1` (configuration not stated) (Cyclohexanecarbonyl-WS(Bn)Y(Bn)A-OMe; configuration not given here) stands 181 to 183 °C; under `CC(CCC(=O)NCCNCCCNC(=O)CN1CCN(CC(=O)O)CCN(CC(=O)O)CCN(CC(=O)O)CC1)C1CCC2C3C(O)CC4CC(O)CCC4(C)C3CC(O)C12C` (configuration not stated), 154 °C; under `CCCCC1(CC)CS(=O)(=O)c2ccc(N(C)C)cc2C(c2cccc(NC(=O)COCCOCC(=O)NCc3ccc(N4C(=O)C(CCC(O)c5ccc(F)cc5)C4c4ccc(OC)cc4)cc3)c2)C1O` (configuration not stated), 116 to 125 °C.
As for `CCCCCCCCCCCCCCCC(=O)C(O)C(O)(C(=O)c1cccc(NC(=O)C(CSC(C)=O)Cc2ccccc2)c1)C(O)C(=O)CCCCCCCCCCCCCCC` (configuration not stated), the melting point was 65 to 67 °C.
Molecule `CCCCCCCCCCCCCCCCCCOc1nc(OCCCCCCCCCCCCCCCCCC)nc(Oc2cc(-c3ccccc3)c(O)c(-c3ccccc3)c2)n1` came in with a melting point of 33 °C.
In the case of `CC1CC2C3CCC4=CC(=O)C=CC4(C)C3(Cl)C(O)CC2(C)C1(O)C(=O)CO` (configuration not stated), the melting point lay within 217 to 222 °C.
Consider `O=P(O)(C(F)(F)C(F)(F)C(F)(F)C(F)(F)C(F)(C(F)(F)F)C(F)(F)F)C(F)(F)C(F)(F)C(F)(F)C(F)(F)C(F)(C(F)(F)F)C(F)(F)F`, for which the melting point lay within 91 to 94 °C.
In turn, `NC(=NC(=O)OCc1ccc([N+](=O)[O-])cc1)N(CCSSCCN(C(=O)OCc1ccc([N+](=O)[O-])cc1)C(N)=NC(=O)OCc1ccc([N+](=O)[O-])cc1)C(=O)OCc1ccc([N+](=O)[O-])cc1` registered a melting point of 165 °C.
As to `COC(C)c1nc2c(N)nc3ccccc3c2n1CCOCCNC(=O)NCCCCCCCCNC(=O)NCCOCCn1c(C(C)OC)nc2c(N)nc3ccccc3c21` (configuration not stated), the melting point fell in the range of 172 to 177 °C.
Take `C=C(C)[C@@H]1CC[C@]2(C(=O)N[C@@H]3C[C@H](C(=O)OCc4ccccc4)C3(C)C)CC[C@]3(C)[C@H](CC[C@@H]4[C@@]5(C)CC[C@H](OC(=O)CC(C)(C)C(=O)O)C(C)(C)[C@@H]5CC[C@]43C)[C@@H]12`: the melting point was in the range of 64.7 to 100 °C.
The molecule `CC(C)OCCOc1ccc(CCCOc2nn(C)cc2CC(=O)O)c(Oc2ncc(C(F)(F)F)cc2Cl)c1` registered a melting point of 104 °C.
Molecule `CC(C)[C@H](NC(=O)N(C)Cc1csc(N)n1)C(=O)N[C@@H](Cc1ccccc1)[C@H](O)[C@@H](O)[C@H](Cc1ccccc1)NC(=O)[C@@H](NC(=O)N(C)Cc1nccs1)C(C)C` came in with a melting point of 108 to 111 °C.
Take `CCOC(=O)C(C)c1cc(C)c(C(=O)c2ccc(Cl)cc2)n1C` (configuration not stated): the melting point lay in the range of 88 to 90 °C.
Under `NS(=O)(=O)c1ccc(-c2c(-c3ccccc3)noc2CO[N+](=O)[O-])cc1` stands 47 to 50 °C; under `COc1cc(OC)c(/C=C/C(c2ccc(OC)c(NC(=O)COC(C)=O)c2)S(=O)(=O)C(/C=C/c2c(OC)cc(OC)cc2OC)c2ccc(OC)c(NC(=O)COC(C)=O)c2)c(OC)c1` (configuration not stated), 192 to 194 °C; under `CCOC(=O)c1cnc2snc(C)c2c1N(C)S(=O)(=O)c1ccc(Oc2ccncc2)cc1`, 57 to 60 °C.
`CCCCCCc1cc(C=C2C(=O)N(CC(CC)CCCC)C(=O)C(C#N)=C2C)sc1-c1ccc(-c2ccc(-c3sc(-c4ccc(N(c5ccccc5)c5ccccc5)cc4)cc3CCCCCC)s2)s1` (configuration not stated) returned a melting point of 153 to 158 °C.
Next, `O=C(O)CCC(Cc1cccc(Cl)c1)(C(=O)C=Cc1ccc(Cl)cc1)c1ccccc1` (configuration not stated): 137 to 139 °C.
Next, `CCCCOC(=O)c1ccc(=O)[nH]n1`: 79 to 80 °C; `O=S(=O)(C(/C=C/c1c(F)c(F)c(F)c(F)c1F)c1ccc(I)cc1)C(/C=C/c1c(F)c(F)c(F)c(F)c1F)c1ccc(I)cc1` (configuration not stated): 178 to 181 °C; `Nc1ncc(Br)cc1[N+](=O)[O-]`: 209 °C.
On to `CC(C)(C)CC(C)(C)c1cc(-n2nc3ccc(-c4ccc(-c5ccc6nn(-c7cc(C(C)(C)CC(C)(C)C)cc(C(C)(C)c8ccccc8)c7O)nc6c5)cc4)cc3n2)c(O)c(C(C)(C)c2ccccc2)c1`, for which the melting point lay within 247 to 249 °C.
`Cc1ccc(O)c(Br)c1` returned a melting point of 16 °C.
In the case of `CC(C)(C)c1cc(C(C)(C)C)c2op(Op3oc4c(C(C)(C)C)cc(C(C)(C)C)cc4c4cc(C(C)(C)C)cc(C(C)(C)C)c4o3)oc3c(C(C)(C)C)cc(C(C)(C)C)cc3c2c1`, the melting point was 269 °C.
On to `NCCC(N)c1ccccc1C(F)(F)F` (configuration not stated), for which the melting point lay within 213 to 217 °C.
